Measured values taken from article PMC10041525, “New Dual Inhibitors of Bacterial Topoisomerases with Broad-Spectrum Antibacterial Activity and In Vivo Efficacy against Vancomycin-Intermediate Staphylococcus aureus” (Journal of Medicinal Chemistry, 2023).
“And” between values parts separate entries of the source, which are not always exact repeats. Identical values can stand only once. Like-named read-outs stand apart in the source and are kept apart here.

Assays:
Type in all cases: cell-based
[1] = tested on: Neisseria gonorrhoeae (n = 12); test: MIC broth microdilution at IHMA Europe; details: for MIC: Neisseria gonorrhoeae, read-out: MIC
S. pneumoniae ATCC 49619 = test: IHMA QC MIC
Description: Supplement jm2c01905_si_004.xlsx, sheet "QC" | column: MIC [µg/mL]

[2] = tested on: 100 A. baumannii strains (50 MDR, 50 non-MDR); test: MIC broth microdilution at IHMA Europe, panel of 100 strains; details: Acinetobacter baumannii

Cc1[nH]c(C(=O)Nc2nc3c(N4CCOCC4)cc(C(=O)O)cc3s2)c(Cl)c1Cl [7a, 2-(3,4-Dichloro-5-methyl-1H-pyrrole-2-carboxamido)-4-morpholinobenzo[d]thiazole-6-carboxylic Acid]
16 µg/mL: MIC ([2]; A. baumannii IHMA 1769910, Israel 2018, Non-MDR) | MIC ([2]; A. baumannii IHMA 1849819, Kuwait 2018, MDR) | MIC ([2]; A. baumannii IHMA 1857118, Slovenia 2018, Non-MDR) | MIC ([2]; A. baumannii IHMA 2014931, South Africa 2019, Non-MDR) | MIC ([2]; A. baumannii IHMA 2034657, Tunisia 2019, Non-MDR) | MIC ([2]; A. baumannii IHMA 2157614, Australia 2020, Non-MDR) | MIC ([2]; A. baumannii IHMA 2178574, Ukraine 2020, Non-MDR) | MIC ([2]; A. baumannii IHMA 2183729, Argentina 2020, MDR)
≤ 0.03 µg/mL: MIC ([1]; isolate IHMA 1123853) | MIC ([1]; isolate IHMA 1130935) | MIC ([1]; isolate IHMA 1145734) | MIC ([1]; isolate IHMA 1145735) | MIC ([1]; isolate IHMA 1165897) | MIC ([1]; isolate IHMA 1194748)
50.0% and 100.0%: Cumulative % at MIC [1]
6: No. of isolates at MIC [1] | No. of isolates at MIC ([1]; MIC 0.06 µg/mL)
32 µg/mL: MIC ([2]; A. baumannii IHMA 1830924, United Kingdom 2018, Non-MDR)
0.06 µg/mL: MIC ([1]; isolate IHMA 1130989) | MIC ([1]; isolate IHMA 1130991) | MIC ([1]; isolate IHMA 1137292) | MIC ([1]; isolate IHMA 1194750) | MIC ([1]; isolate IHMA 1546199) | MIC ([1]; isolate IHMA 1546215)
≤ 0.06 µg/mL: MIC, all isolates ([1]; n = 12)
0.25 µg/mL: MIC (S. pneumoniae ATCC 49619; QC strain S. pneumoniae ATCC 49619, test date 2021-11-26) | MIC (S. pneumoniae ATCC 49619; Streptococcus pneumoniae, ATCC49619)
1 µg/mL: MIC ([2]; A. baumannii IHMA 1795669, Tunisia 2018, Non-MDR)
8 µg/mL: MIC ([2]; A. baumannii IHMA 1814276, Lebanon 2018, MDR) | MIC ([2]; A. baumannii IHMA 1815198, Kuwait 2018, MDR) | MIC ([2]; A. baumannii IHMA 1821468, South Africa 2018, Non-MDR) | MIC ([2]; A. baumannii IHMA 1829500, Georgia 2018, Non-MDR) | MIC ([2]; A. baumannii IHMA 1849829, Kuwait 2018, Non-MDR) | MIC ([2]; A. baumannii IHMA 1863631, France 2018, Non-MDR) | MIC ([2]; A. baumannii IHMA 1870054, United States 2018, Non-MDR) | MIC ([2]; A. baumannii IHMA 1884428, Italy 2018, Non-MDR) | MIC ([2]; A. baumannii IHMA 1900538, Turkey 2018, Non-MDR) | MIC ([2]; A. baumannii IHMA 1957343, Portugal 2019, Non-MDR) | MIC ([2]; A. baumannii IHMA 1963732, Turkey 2019, MDR) | MIC ([2]; A. baumannii IHMA 1977077, Kuwait 2019, Non-MDR) | MIC ([2]; A. baumannii IHMA 1983151, Greece 2019, MDR) | MIC ([2]; A. baumannii IHMA 1984665, Lithuania 2019, MDR) | MIC ([2]; A. baumannii IHMA 1986678, Turkey 2019, Non-MDR) | MIC ([2]; A. baumannii IHMA 1986738, Turkey 2019, MDR) | MIC ([2]; A. baumannii IHMA 1995161, Czech Republic 2019, Non-MDR) | MIC ([2]; A. baumannii IHMA 1997936, Morocco 2019, Non-MDR) | MIC ([2]; A. baumannii IHMA 2003279, Turkey 2019, MDR) | MIC ([2]; A. baumannii IHMA 2019315, Romania 2019, Non-MDR) | MIC ([2]; A. baumannii IHMA 2020360, Croatia 2019, MDR) | MIC ([2]; A. baumannii IHMA 2031524, Greece 2019, MDR) | MIC ([2]; A. baumannii IHMA 2035089, Serbia 2019, MDR) | MIC ([2]; A. baumannii IHMA 2035134, Serbia 2019, Non-MDR) | MIC ([2]; A. baumannii IHMA 2038976, Hungary 2019, MDR) | MIC ([2]; A. baumannii IHMA 2058329, Slovenia 2019, Non-MDR) | MIC ([2]; A. baumannii IHMA 2099294, United Kingdom 2019, Non-MDR) | MIC ([2]; A. baumannii IHMA 2129256, Qatar 2019, Non-MDR) | MIC ([2]; A. baumannii IHMA 2154584, Israel 2020, MDR) | MIC ([2]; A. baumannii IHMA 2156634, Turkey 2020, MDR) | MIC ([2]; A. baumannii IHMA 2156709, Turkey 2020, MDR) | MIC ([2]; A. baumannii IHMA 2177232, Lithuania 2020, MDR) | MIC ([2]; A. baumannii IHMA 2177489, Lithuania 2020, MDR) | MIC ([2]; A. baumannii IHMA 2180134, Malaysia 2020, Non-MDR) | MIC ([2]; A. baumannii IHMA 2181370, Morocco 2020, MDR) | MIC ([2]; A. baumannii IHMA 2183849, Argentina 2020, Non-MDR) | MIC ([2]; A. baumannii IHMA 2193375, Venezuela 2020, MDR) | MIC ([2]; A. baumannii IHMA 2193607, Venezuela 2020, MDR)
